Where two headings read alike, the source gives them in different places.
Columns and labels:
[1] = target: Cav2.2 (N-type Ca channel) (Homo sapiens, UniProt Q00975); assay: Patch clamp of Cav2.2 N-type Ca channel; type: cell-based; conditions: Table 2
hERG channel = target: T1, hERG channel (Homo sapiens, UniProt Q12809); assay: hERG patch clamp in hERG-expressing CHO cells; type: cell-based
T1 construct: expressed in transfected cells; host or cells: CHO
Experimental: Sodium and potassium channels in the rodent DRG neurons were recorded and tested as described above. The human ether-a-go-go-related gene (hERG) encodes the rapidly activating potassium channel (IKr) contributing to the repolarization of the cardiac action potential. […] Therefore the representative example compounds in Table 2 were tested against the hERG channel.
Whole-cell patch clamp electrophysiology is employed to test compounds and a positive control compound. Extracellular Ringer's solution contains (in mM): NaCl (130), KCl (5), CaCl2 (1), Glucose (10), HEPES-Na (10) (pH 7.4 adjusted with HCl). Internal pipette solution contains (in mM): KF (120), CaCl2 (1), MgCl2 (1), KCl (10), EGTA (11), HEPES (10), KOH (11) (pH 7.2 adjusted with KOH). The hERG potassium currents are recorded under a holding potential of −80 mV and then depolarized to 40 mV for 2.5 seconds to activate the hERG channel. The peak tail currents are induced by a repolarizing pulse to −50 mV for 4 seconds. A 250 millisecond prepulse to −50 mV is applied for leak subtraction. This voltage-clamp pulse protocol is performed continuously during the experiment every 20 seconds allowing recovery from inactivation. For IC50 determination, each concentration is applied for 2 mins to reach a steady-state inhibitory level prior to the next higher concentrations tested. Each concentration is tested at 2-3 times (n=2-3).

[2] = tested on: PTZ-induced seizures in mice; assay: Pentylenetetrazol (PTZ)-induced seizures in mice; type: in vivo, mouse; conditions: for latency to seizures / fatality latency / fatality rate: 30 mg/kg I.P., PTZ 40 mg/kg I.P.; for fatality latency / fatality rate: 20 min cutoff; for PTZ-induced Fatality (%): 30 mg/kg I.P. 60 min before PTZ 40 mg/kg I.P., death within 20 min
Experimental: FIG. 10. […] Sixty minutes (min) prior to receiving PTZ (40 mg/kg, I.P.), each mouse was pretreated with either an Example compound, ML218, Z944 or vehicle (2% DMSO in 0.5% HPC). Fatality rate (%) of mice in each group that dies within the 20 minutes observation period—was calculated. Both fatality rate and latency (data not shown) to death were used to evaluate the Example compound's ability to prevent death resulting from PTZ-induced seizures. A cutoff of 20 minutes was set for observational and statistical analysis purposes.
It is well known that antiepileptics, e.g. carbamazepine, lamotrigine and gabapentin are used for the treatment of neuropathic pain (Xie et al., 1995, Caviedes and Herranz, 2001). T-channel overactivation is involved in the generation of seizure activity (Huguenard, 1998, Cribbs et al., 2000, Perez-Reyes et al., 2009, Perez-Reyes, 2010). […] Fatality latency and rate—the percentage (%) of mice in each treatment group that died within a 20 minute cutoff of the observational period, were recorded and calculated. Averaged fatality latency and rate of each treatment group was used to evaluate the Example compound's ability to either prevent or delay the onset of PTZ-induced seizures and death.

T1 sequence (Q12809 whole entry): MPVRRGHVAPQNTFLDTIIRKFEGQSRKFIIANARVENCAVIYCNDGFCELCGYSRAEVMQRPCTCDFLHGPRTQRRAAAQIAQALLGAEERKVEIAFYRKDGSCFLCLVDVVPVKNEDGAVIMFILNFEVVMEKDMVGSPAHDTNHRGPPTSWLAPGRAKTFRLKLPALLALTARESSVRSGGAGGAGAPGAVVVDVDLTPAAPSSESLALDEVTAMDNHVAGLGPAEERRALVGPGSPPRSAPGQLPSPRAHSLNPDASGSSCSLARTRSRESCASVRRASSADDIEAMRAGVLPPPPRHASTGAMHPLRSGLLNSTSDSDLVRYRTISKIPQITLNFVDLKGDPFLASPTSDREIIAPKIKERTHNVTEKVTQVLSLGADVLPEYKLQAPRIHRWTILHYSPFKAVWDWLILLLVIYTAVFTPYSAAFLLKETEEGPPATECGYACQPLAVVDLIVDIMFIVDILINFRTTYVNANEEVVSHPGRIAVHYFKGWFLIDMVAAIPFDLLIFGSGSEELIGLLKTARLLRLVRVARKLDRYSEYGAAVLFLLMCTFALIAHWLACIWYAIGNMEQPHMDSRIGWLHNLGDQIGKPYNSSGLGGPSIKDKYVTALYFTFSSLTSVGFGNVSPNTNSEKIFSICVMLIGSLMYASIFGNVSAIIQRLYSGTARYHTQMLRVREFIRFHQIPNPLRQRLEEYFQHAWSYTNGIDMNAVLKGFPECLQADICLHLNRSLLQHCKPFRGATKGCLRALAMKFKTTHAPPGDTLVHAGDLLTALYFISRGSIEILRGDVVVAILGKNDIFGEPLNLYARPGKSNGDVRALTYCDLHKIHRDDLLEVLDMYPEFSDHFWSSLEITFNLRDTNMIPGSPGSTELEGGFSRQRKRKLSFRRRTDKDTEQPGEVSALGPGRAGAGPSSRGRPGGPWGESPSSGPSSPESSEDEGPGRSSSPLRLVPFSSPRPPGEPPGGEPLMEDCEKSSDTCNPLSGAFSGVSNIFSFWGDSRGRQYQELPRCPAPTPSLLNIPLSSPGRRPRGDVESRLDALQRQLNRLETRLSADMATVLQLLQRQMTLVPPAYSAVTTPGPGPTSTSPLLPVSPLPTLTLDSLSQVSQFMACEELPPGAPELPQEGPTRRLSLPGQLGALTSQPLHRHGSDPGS

SMILES	IC50 [1]	inhibition at 1 µM (hERG channel; human, CHO cells expressing hERG, pH 7.4, 1 μM, values in brackets, read-out: hERG (%) inh. at 1 μM)	latency to seizures [2]	fatality latency [2]	fatality rate [2]	IC50 (hERG channel)	PTZ-induced Fatality (%) [2]	IC50 (hERG channel; Table 2, read-out: hERG IC50)	hERG (%) inh. at 1 μM (hERG channel; 1 μM, values in brackets)
CC(C)(C)NC(=O)CN1CCC2(CC1)C[C@H]2NC(=O)c1cc(Cl)cc(Cl)c1 (single isomer, unassigned) [Example 57, (R)—N-(6-(2-(tert-Butylamino)-2-oxoethyl)-6-azaspiro[2.5]octan-1-yl)-3,5-dichlorobenzamide or (S)—N-(6-(2-(tert-Butylamino)-2-oxoethyl)-6-azaspiro[2.5]octan-1-yl)-3,5-dichlorobenzamide]	> 30 µM	22%	significantly prolonged latencies to seizures	prolonged fatality latencies	decreased the fatality rate				
CC(C)(C)NC(=O)CN1CCC2(CC1)CC2NC(=O)c1cc(F)cc(Cl)c1 (single isomer, unassigned) [Example 128, (S)—N-(6-(2-(tert-Butylamino)-2-oxoethyl)-6-azaspiro[2.5]octan-1-yl)-3-chloro-5-fluorobenzamide or (R)—N-(6-(2-(tert-Butylamino)-2-oxoethyl)-6-azaspiro[2.5]octan-1-yl)-3-chloro-5-fluorobenzamide]	> 10 µM		significantly prolonged latencies to seizures	prolonged fatality latencies	decreased the fatality rate	7 µM	16.7%		
CC(C)(C)NC(=O)CN1CCC2(CC1)C[C@H]2NC(=O)c1cc(F)cc(Cl)c1 (single isomer, unassigned) [Example 129, (R)—N-(6-(2-(tert-Butylamino)-2-oxoethyl)-6-azaspiro[2.5]octan-1-yl)-3-chloro-5-fluorobenzamide or (S)—N-(6-(2-(tert-Butylamino)-2-oxoethyl)-6-azaspiro[2.5]octan-1-yl)-3-chloro-5-fluorobenzamide]	> 30 µM		significantly prolonged latencies to seizures	prolonged fatality latencies	decreased the fatality rate			16 µM	
CC(C)(C)NC(=O)CN1CCC2(CC1)C[C@H]2NC(=O)c1cc(F)cc(C(F)(F)F)c1 (single isomer, unassigned) [Example 130, (R)—N-(6-(2-(tert-Butylamino)-2-oxoethyl)-6-azaspiro[2.5]octan-1-yl)-3-fluoro-5-(trifluoromethyl)benzamide or (S)—N-(6-(2-(tert-Butylamino)-2-oxoethyl)-6-azaspiro[2.5]octan-1-yl)-3-fluoro-5-(trifluoromethyl)benzamide]	> 30 µM		significantly prolonged latencies to seizures	prolonged fatality latencies	decreased the fatality rate			8 µM	
CC(C)(C)NC(=O)CN1CCC2(CC1)C[C@H]2C(=O)Nc1cc(C(F)(F)F)cc(C(F)(F)F)c1 (single isomer, unassigned) [Example 132, (R)—N-(3,5-Bis(trifluoromethyl)phenyl)-6-(2-(tert-butylamino)-2-oxoethyl)-6-azaspiro[2.5]octane-1-carboxamide or (S)—N-(3,5-Bis(trifluoromethyl)phenyl)-6-(2-(tert-butylamino)-2-oxoethyl)-6-azaspiro[2.5]octane-1-carboxamide]	3.1 µM		significantly prolonged latencies to seizures	prolonged fatality latencies	decreased the fatality rate				(9%)
CC(C)(C)NC(=O)CN1CCC2(CC1)C[C@H]2NC(=O)c1cc(C(F)(F)F)cc(C(F)(F)F)c1 (single isomer, unassigned) [Example 144, ((R)—N-(6-(2-(tert-butylamino)-2-oxoethyl)-6-azaspiro[2.5]octan-1-yl)-3,5-bis(trifluoromethyl)benzamide or (S)—N-(6-(2-(tert-butylamino)-2-oxoethyl)-6-azaspiro[2.5]octan-1-yl)-3,5-bis(trifluoromethyl)benzamide]	12.3 µM		significantly prolonged latencies to seizures	prolonged fatality latencies	decreased the fatality rate			4.6 µM	
CC(C)(C)NC(=O)CN1CCC2(CC1)C[C@H]2NC(=O)C12CC3CC(CC(C3)C1)C2 (single isomer, unassigned) [Example 145, N—((R)-6-(2-(tert-butylamino)-2-oxoethyl)-6-azaspiro[2.5]octan-1-yl)adamantane-1-carboxamide or N—((S)-6-(2-(tert-butylamino)-2-oxoethyl)-6-azaspiro[2.5]octan-1-yl)adamantane-1-carboxamide]	15.6 µM		significantly prolonged latencies to seizures	prolonged fatality latencies	decreased the fatality rate			> 30 µM	
CC(C)(C)CCN1CCC2(CC1)C[C@H]2NC(=O)c1cc(C(F)(F)F)cc(C(F)(F)F)c1 (single isomer, unassigned) [Example 146, (R)—N-(6-(3,3-dimethylbutyl)-6-azaspiro[2.5]octan-1-yl)-3,5-bis(trifluoromethyl)benzamide or (S)—N-(6-(3,3-dimethylbutyl)-6-azaspiro[2.5]octan-1-yl)-3,5-bis(trifluoromethyl)benzamide]	2.5 µM		significantly prolonged latencies to seizures	prolonged fatality latencies	decreased the fatality rate			1.2 µM	
CC(C)(C)CCN1CCC2(CC1)C[C@H]2NC(=O)c1cc(C(F)(F)F)ccc1Cl (single isomer, unassigned) [Example 147, (R)-2-Chloro-N-(6-(3,3-dimethylbutyl)-6-azaspiro[2.5]octan-1-yl)-5-(trifluoromethyl)benzamide or (S)-2-Chloro-N-(6-(3,3-dimethylbutyl)-6-azaspiro[2.5]octan-1-yl)-5-(trifluoromethyl)benzamide]	5.6 µM		significantly prolonged latencies to seizures	prolonged fatality latencies	decreased the fatality rate			1.8 µM	
CC(C)(C)NC(=O)CN1CCC2(CC1)CC2NC(=O)c1cc(F)cc(Cl)c1 (stereo not shown) [Example 17, N-(6-(2-(tert-Butylamino)-2-oxoethyl)-6-azaspiro[2.5]octan-1-yl)-3-chloro-5-fluorobenzamide]	> 30 µM		significantly prolonged latencies to seizures	prolonged fatality latencies	decreased the fatality rate	10.7 µM			
CC(C)(C)CCN1CCC2(CC1)CC2NC(=O)c1cc(F)cc(Cl)c1 (stereo not shown) [Example 28, 3-Chloro-N-(6-(3,3-dimethylbutyl)-6-azaspiro[2.5]octan-1-yl)-5-fluorobenzamide]	9.4 µM		significantly prolonged latencies to seizures	prolonged fatality latencies	decreased the fatality rate	3.6 µM			
CC(C)(C)NC(=O)CN1CCC2(CC1)CC2C(=O)Nc1cc(F)cc(C(F)(F)F)c1 (stereo not shown) [Example 141, 6-(2-(tert-Butylamino)-2-oxoethyl)-N-(3-fluoro-5-(trifluoromethyl)phenyl)-6-azaspiro[2.5]octane-1-carboxamide]	5.1 µM		significantly prolonged latencies to seizures	prolonged fatality latencies	decreased the fatality rate			17.4 µM	
CC(C)(C)CCN1C[C@@H]2[C@@H](CNC(=O)c3cc(Cl)cc(Cl)c3)[C@@H]2C1 [ML218, 3,5-Dichloro-N-[[(1α,5α,6-exo,6α)-3-(3,3-dimethylbutyl)-3-azabicyclo[3.1.0]hex-6-yl]methyl]benzamide, reference compound]	20.7 µM		significantly prolonged latencies to seizures	prolonged fatality latencies	decreased the fatality rate		50%	2.1 µM	

— US10562857B2 (AFASCI, Inc., priority 2015, dated 2020)
